Experimental data as given in patent US20140378515A1, “IMMUNOSUPPRESSIVE COMPOUNDS” (priority 2013, published 2014).

Legend:
IL-2 production = IL-2 production by PHA/PMA stimulated PBMCs (ELISA); assay type: cell-based, human; conditions: experimental IL-2 IC50 listed in Table 3
Protocol: The PBMCs were cultured in a 96-well flat-bottomed plate (1.0×10^5 cell/well) in the presence or absence of three concentrations of test compounds (1.0, 5.0 and 20 μg/mL), and phytohemagglutinin (PHA) phorbol myristate acetate (PMA) in a final concentration of 5 ng/mL and 20 ng/mL, respectively. After an incubation period of 18 h at 37° C. in a humidified atmosphere of 5% CO2 in air, the supernatant was collected for IL-2 determination. Interleukin-2 levels were measured by using enzyme-linked immunosorbent assay (ELISA) development kit (R&D systems, Minneapolis, Minn., USA). The assay was performed according to the manufacturer's instructions. Briefly, a 96-well flat-bottomed ELISA plate was coated with 4.0 μg/mL mouse anti-human IL-2, in PBS, pH 7.4. Then, re-combinant human IL-2 standards and culture supernatant samples were added and incubated for 2 h followed by washing steps and then the addition of biotinylated goat anti-human IL-2. After an incubation period of 2 h at room temperature, the plates were again washed and streptavidin conjugated horse raddish peroxidase was added and incubated for additional 20 min at room temperature. After the final washes, an enzyme substrate solution of H2O2 and tetra methyl benzidine (1:1 v/v) was added and the color was allowed to develop at room temperature in the dark. The plates were then read at 450 nm in a plate reader (DIAReader GMBH, Wr. Neudorf, Austria). The results were analyzed using Microsoft Excel.

[1] = system: NO produced by mouse macrophages J774.2 cell line; assay: Nitrite accumulation in LPS-stimulated J774.2 macrophages (Griess method); assay type: cell-based; conditions: LPS-stimulated J774.2, 24 hours
Protocol: The mouse macrophage cell line J774.2 obtained from ECACC, Salisbury, Wiltshire (UK) was cultured in T75 flasks in complete DMEM containing 10% fetal bovine serum and supplemented with 1% streptomycin/penicillin. Flasks were kept at 37° C. in the atmosphere of humidified air containing 5% CO2. Cell were then seeded in 24 well (10^6 cells/mL) and nitric oxide synthase (NOS-2) in the macrophages was induced by addition of 20 μg/mL E. coli lipopolysaccharide (DIFCO Laboratories, Michigan, USA). The test compounds were added at a concentration of 25 μg/mL soon after LPS stimulation and incubated at 37° C. in 5% CO2. Cell culture supernatant was collected after 24 hours. Nitrite accumulation in J774.2 cell culture supernatant was measured using the Griess method, where 50 μL of 1% sulphanilamide in 2.5% phosphoric acid, followed by 50 μL of 0.1% naphtyl-ethylene diamine dihydrochloride in 2.5% phosphoric acid were added to 50 μL culture medium. After 10 minutes of incubation at room temperature the absorbance at 550 nm was read. Micromolar concentrations of nitrite were calculated from standard curve constructed with sodium nitrite a reference compound. The results were expressed as means±SD of duplicate readings.

[2] = system: 3T3 NIH mouse embryo fibroblast cell line
Protocol: The 3T3-NIH cells were suspended in Dulbecco's Modified Eagle's Medium (DMEM) formulated with 10% FBS. Using flat bottomed plates, cells were plated at a concentration of 6×10^4 cells/mL and incubated for 24 h at 37° C. and 5% CO2 environment. […] Following exposure to each compound, cell viability was assessed by using 0.5 mg/mL of MTT {3-(4,5-dimethylthiazol-2-yl)-2,5-diphenyltetrazolium bromide for 4 h followed by the removal of supernatant and addition of DMSO to solubilize the formazan complex. The plates were read at 540 nm after one minute shaking and readings were processed using MS Excel software. The results were expressed as means±SD of triplicate readings.

[3] = system: ROS produced by human blood phagocytes; assay: Oxidative burst, luminol-enhanced chemiluminescence in whole blood; assay type: cell-based; conditions: serum opsonized zymosan
Protocol: Formation of the reactive oxygen species (ROS) in whole blood, during the oxidative burst was measured by the luminol-enhanced chemiluminescence assay. In brief, three concentrations of each compound (1.0, 10 and 100 μg/mL) were prepared in 25 μL of Hank's Balanced salt solution containing calcium chloride and magnesium sulfate (HBSS^++) in a half area 96-well white flat-bottomed plate (Sigma Aldrich, Steinheim, Germany) in a final volume of 100 μL. Then 25 μL of whole blood diluted 1:50 in suspension of HBSS^++ was added.
Positive and negative controls and blank wells were included. Cells and compounds were incubated for 30 minutes at 37° C., then 25 μL luminol [3-aminophthalhydrazide] (Research Organics Cleveland, Ohio, USA), were added into each well followed by 25 μL of serum opsonized zymosan (Saccharomyces cerevisiae origin) purchased from Fluka, Buchs (Switzerland) was added except for negative and blank wells. The ROS chemiluminescence kinetic was monitored with a luminometer from Labsystems (Helsinki, Finland), for 50 minutes in the repeated scan mode. Peak and total integral chemiluminescence readings were expressed in the relative light unit.

T-cell proliferation = T-cell proliferation assay (PHA-stimulated PBMNCs, 3H-thymidine incorporation); assay type: cell-based, human; design: unit not given here; conditions: PHA 5 μg/mL stimulated PBMNCs
Protocol: The diluted blood was then layered onto lymphocyte separation medium (MP Biomedicals, Inc., Ohio, USA) and centrifuged at 400 g for 20 min at 25° C. […] Plates were then incubated at 37° C. in a humidified atmosphere of 5% CO2 in air for 72 hours. To each well, 0.5 μCi [methyl ^3H]-thymidine (Amersham Place Little Chalfont, Buckinghamshire, UK) was added for an additional 18 hours. Cells were harvested using a cell harvester (Inotech, Dottikon, Switzerland), and incorporation and level of radioactivity was measured by a liquid scintillation counter (Beckman coulter, LS 6500, Fullerton, Calif., USA).

## COc1cccc(-c2nc3ccccc3s2)c1O [Compound 2]
IL-2 production
  IC50: <1 µg/mL
[1]
  % of NO inhibited by 25 μg/mL of compound: 28.9 ± 1.3%
[2]
  Cytotoxicity IC50: >25 µg/mL
[3]
  IC50 (μg/mL) for phagocytes ROS: 1.9 ± 0.6 µg/mL
T-cell proliferation
  IC50 T-cell proliferation: 2.97±0.3
